Experimental data reported in ChEMBL document CHEMBL2311254, “Tuning the preference of thiodigalactoside- and lactosamine-based ligands to galectin-3 over galectin-1” (J Med Chem, 2013).

Experiments:
Homo sapiens = species on record: Homo sapiens; assay: Selectivity ratio of Kd for galectin-1 (unknown origin) to Kd for galectin-3 (unknown origin)
Galectin-3 [1] = molecular target: T1, Galectin-3 (Homo sapiens, UniProt P17931); assay: Ratio of Thiodigalactoside Kd to compound Kd for galectin-3 (unknown origin)
Galectin-1 [2] = molecular target: T2, Galectin-1 (Homo sapiens, UniProt P09382); assay: Ratio of Thiodigalactoside Kd to compound Kd for galectin-1 (unknown origin)
Galectin-3 [3] = molecular target: T1, Galectin-3; assay: Binding affinity to galectin-3 (unknown origin) by fluorescence polarization assay
Galectin-1 [4] = molecular target: T2, Galectin-1; assay: Binding affinity to galectin-1 (unknown origin) by fluorescence polarization assay
Galectin-3 [5] = molecular target: T1, Galectin-3; assay: Ratio of LacNAc-beta-OMe Kd to compound Kd for galectin-3 (unknown origin)
Galectin-1 [6] = molecular target: T2, Galectin-1; assay: Ratio of LacNAc-beta-OMe Kd to compound Kd for galectin-1 (unknown origin)
Galectin-3 [7] = molecular target: T1, Galectin-3; assay: Binding affinity to galectin-3 (unknown origin)

T2 sequence (P09382 whole entry): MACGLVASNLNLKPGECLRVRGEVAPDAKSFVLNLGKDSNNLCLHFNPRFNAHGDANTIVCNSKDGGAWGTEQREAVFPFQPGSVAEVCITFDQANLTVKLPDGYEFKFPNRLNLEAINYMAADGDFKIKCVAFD
T1 sequence (P17931 whole entry): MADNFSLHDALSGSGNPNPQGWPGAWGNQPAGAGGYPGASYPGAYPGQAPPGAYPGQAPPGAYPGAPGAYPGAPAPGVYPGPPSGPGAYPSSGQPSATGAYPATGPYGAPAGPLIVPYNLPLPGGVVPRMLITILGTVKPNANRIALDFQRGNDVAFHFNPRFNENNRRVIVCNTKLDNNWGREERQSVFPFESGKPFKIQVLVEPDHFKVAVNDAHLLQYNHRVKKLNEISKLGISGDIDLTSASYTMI

Row | SMILES | Selectivity ratio (Homo sapiens) | Ratio (Galectin-3 [1]) | Ratio (Galectin-1 [2]) | Kd (Galectin-3 [3]) | Kd (Galectin-1 [4]) | Ratio (Galectin-3 [5]) | Ratio (Galectin-1 [6]) | Activity (Galectin-3 [7])
1 | OC[C@H]1O[C@@H](S[C@@H]2O[C@H](CO)[C@H](O)[C@H](n3cc(-c4ccccc4)nn3)[C@H]2O)[C@H](O)[C@@H](n2cc(-c3ccccc3)nn2)[C@H]1O | 1 | 980 | 490 | 44 nM | 49 nM | – | – | –
2 | [N-]=[N+]=NCCCO[C@@H]1O[C@H](CO)[C@@H](O[C@@H]2O[C@H](CO)[C@H](O)[C@H](OCc3ccc(Oc4ccccc4)cc3)[C@H]2O)[C@H](O)[C@H]1N1C(=O)c2ccccc2C1=O | 230 | – | – | 1200 nM | 280000 nM | 58 | 0.3 | –
3 | [N-]=[N+]=NCCCO[C@@H]1O[C@H](CO)[C@@H](O[C@@H]2O[C@H](CO)[C@H](O)[C@H](OCc3ccc(Oc4ccccc4)cc3)[C@H]2O)[C@H](O)[C@H]1NC(=O)c1ccccc1 | 22 | – | – | 8100 nM | 180000 nM | 8.5 | 0.4 | –
4 | OC[C@H]1O[C@@H](S[C@@H]2O[C@H](CO)[C@H](O)[C@H](O)[C@H]2O)[C@H](O)[C@@H](O)[C@H]1O | – | – | – | – | – | – | – | 43 µM
5 | OC[C@H]1O[C@@H](S[C@@H]2O[C@H](CO)[C@H](O)[C@H](n3cc(-c4ccc(Oc5ccccc5)cc4)nn3)[C@H]2O)[C@H](O)[C@@H](n2cc(-c3ccc(Oc4ccccc4)cc3)nn2)[C@H]1O | 230 | 120 | 0.3 | 360 nM | 84000 nM | – | – | –
6 | CO[C@@H]1O[C@H](CO)[C@@H](O[C@@H]2O[C@H](CO)[C@H](O)[C@H](O)[C@H]2O)[C@H](O)[C@H]1NC(C)=O | 1 | – | – | 69000 nM | – | – | – | –
7 | OC[C@H]1O[C@@H](S[C@@H]2O[C@H](CO)[C@H](O)[C@H](n3cc(-c4cccc(O)c4)nn3)[C@H]2O)[C@H](O)[C@@H](n2cc(-c3cccc(O)c3)nn2)[C@H]1O | 0.6 | 1950 | 1850 | 22 nM | 13 nM | – | – | –
8 | [N-]=[N+]=NCCCO[C@@H]1O[C@H](CO)[C@@H](O[C@@H]2O[C@H](CO)[C@H](O)[C@H](n3cc(-c4ccc(Oc5ccccc5)cc4)nn3)[C@H]2O)[C@H](O)[C@H]1NC(=O)c1ccccc1 | 2.4 | – | – | 2800 nM | 6700 nM | 25 | 10 | –
9 | [N-]=[N+]=NCCCO[C@@H]1O[C@H](CO)[C@@H](O[C@@H]2O[C@H](CO)[C@H](O)[C@H](n3cc(-c4ccc(Oc5ccccc5)cc4)nn3)[C@H]2O)[C@H](O)[C@H]1N1C(=O)c2ccccc2C1=O | 13 | – | – | 2200 nM | 28000 nM | 31 | 2.5 | –
